Results reported in EPA's CvTdb concentration-time database.

Legend:
Rat [1] = assay: concentration in plasma after dosing; settings: dosed: Isoeugenol, 17 mg/kg, oral, Male, F344/N
Rat [2] = assay: concentration in plasma after dosing; settings: dosed: Isoeugenol, 17 mg/kg, oral, Male, F344/N; remark: listed apart in the source
Rat [3] = assay: concentration in plasma after dosing; settings: dosed: Isoeugenol, 17 mg/kg, oral, Female, F344/N
Rat [4] = assay: concentration in plasma after dosing; settings: dosed: Isoeugenol, 70 mg/kg, oral, Male, F344/N
Rat [5] = assay: concentration in plasma after dosing; settings: 0.5 h; dosed: Isoeugenol; 70 mg/kg; oral; Male; F344/N
Rat [6] = assay: concentration in plasma after dosing; settings: dosed: Isoeugenol, 17 mg/kg, oral, Male, F344/N; remark: listed apart in the source
Rat [7] = assay: concentration in plasma after dosing; settings: dosed: Isoeugenol, 70 mg/kg, oral, Male, F344/N; remark: listed apart in the source
Rat [8] = assay: concentration in plasma after dosing; settings: dosed: Isoeugenol, 17 mg/kg, oral, Female, F344/N; remark: listed apart in the source
Rat [9] = assay: concentration in plasma after dosing; settings: dosed: Isoeugenol, 17 mg/kg, oral, Female, F344/N; remark: listed apart in the source
Rat [10] = assay: concentration in plasma after dosing; settings: dosed: Isoeugenol, 70 mg/kg, oral, Male, F344/N; remark: listed apart in the source
Rat [11] = assay: concentration in plasma after dosing; settings: dosed: Isoeugenol, 70 mg/kg, oral, Male, F344/N; remark: listed apart in the source
Rat [12] = assay: concentration in plasma after dosing; settings: 2 min; dosed: Isoeugenol; 17 mg/kg; oral; Male; F344/N
Rat [13] = assay: concentration in plasma after dosing; settings: dosed: Isoeugenol, 17 mg/kg, oral, Female, F344/N; remark: listed apart in the source
Rat [14] = assay: concentration in plasma after dosing; settings: dosed: Isoeugenol, 17 mg/kg, oral, Female, F344/N; remark: listed apart in the source
Rat [15] = assay: concentration in plasma after dosing; settings: dosed: Isoeugenol, 70 mg/kg, oral, Male, F344/N; remark: listed apart in the source
Rat [16] = assay: concentration in plasma after dosing; settings: 5 min; dosed: Isoeugenol; 17 mg/kg; oral; Male; F344/N
Rat [17] = assay: concentration in plasma after dosing; settings: 5 min; dosed: Isoeugenol; 17 mg/kg; oral; Male; F344/N; remark: listed apart in the source
Rat [18] = assay: concentration in plasma after dosing; settings: dosed: Tetralin, 2 mg/kg, iv, Male, F344
Rat [19] = assay: concentration in plasma after dosing; settings: dosed: Tetralin, 2 mg/kg, iv, Male, Harlan Sprague Dawley
Rat [20] = assay: concentration in plasma after dosing; settings: dosed: Tetralin, 2 mg/kg, iv, Male, F344; remark: listed apart in the source
Rat [21] = assay: concentration in plasma after dosing; settings: dosed: Tetralin, 2 mg/kg, iv, Male, Harlan Sprague Dawley; remark: listed apart in the source
Rat [22] = assay: concentration in plasma after dosing; settings: dosed: Tetralin, 2 mg/kg, iv, Male, F344; remark: listed apart in the source
Rat [23] = assay: concentration in plasma after dosing; settings: dosed: Tetralin, 20 mg/kg, iv, Female, Harlan Sprague Dawley
Rat [24] = assay: concentration in plasma after dosing; settings: 1 h; dosed: Tetralin; 2 mg/kg; iv; Male; Harlan Sprague Dawley
Rat [25] = assay: concentration in plasma after dosing; settings: dosed: Tetralin, 2 mg/kg, iv, Male, F344; remark: listed apart in the source
Rat [26] = assay: concentration in plasma after dosing; settings: dosed: Tetralin, 20 mg/kg, iv, Female, Harlan Sprague Dawley; remark: listed apart in the source
Rat [27] = assay: concentration in plasma after dosing; settings: dosed: Tetralin, 2 mg/kg, iv, Male, Harlan Sprague Dawley; remark: listed apart in the source
Rat [28] = assay: concentration in plasma after dosing; settings: dosed: Tetralin, 20 mg/kg, iv, Female, Harlan Sprague Dawley; remark: listed apart in the source
Rat [29] = assay: concentration in plasma after dosing; settings: dosed: Tetralin, 2 mg/kg, iv, Male, Harlan Sprague Dawley; remark: listed apart in the source
Rat [30] = assay: concentration in plasma after dosing; settings: dosed: Tetralin, 20 mg/kg, iv, Female, Harlan Sprague Dawley; remark: listed apart in the source
Rat [31] = assay: concentration in plasma after dosing; settings: dosed: Tetralin, 2 mg/kg, iv, Male, F344; remark: listed apart in the source
Rat [32] = assay: concentration in plasma after dosing; settings: dosed: Tetralin, 2 mg/kg, iv, Male, F344; remark: listed apart in the source
rat [33] = assay: concentration in blood after dosing; settings: dosed: styrene, 3000 ppm, dermal, duration: 4 hr, male, F344

C/C=C/c1ccc(O)c(OC)c1 [Isoeugenol]
Settings	concentration in plasma [ng/mL]
Rat [1], 1.5 h	34.3
Rat [1], 2 min	38.3
Rat [2], 0.5 h	130
Rat [2], 2 h	35.7
Rat [3], 1 h	22.7
Rat [3], 3 h	29.5
Rat [4], 5 h	106
Rat [4], 5 min	1020
Rat [6], 0.5 h	95.4
Rat [6], 2 h	30.2
Rat [7], 5 h	66.8
Rat [7], 10 min	353
Rat [8], 4 h	28.5
Rat [8], 10 min	500
Rat [9], 0.75 h	40.3
Rat [9], 6 h	74.4
Rat [10], 4 h	339
Rat [10], 20 min	557
Rat [11], 2 h	68.4
Rat [11], 2 min	711
Rat [13], 8 h	31.8
Rat [13], 20 min	311
Rat [14], 0.75 h	52.2
Rat [14], 3 h	16.3
Rat [15], 2 min	74.6
Rat [15], 6 h	84.5

Settings	concentration in plasma [ng/mL]
Rat [5]	469
Rat [12]	35.6
Rat [16]	238
Rat [17]	194

c1ccc2c(c1)CCCC2 [Tetralin]
Settings	concentration in plasma [µg/g]
Rat [18], 1 h	0.0668
Rat [18], 24 h	0.00063
Rat [19], 0.2533 h	0.406
Rat [19], 6 h	0.00586
Rat [20], 0.09 h	1.33
Rat [20], 4 h	0.0088
Rat [21], 4 h	0.0072
Rat [21], 307 s	1.62
Rat [22], 0.2517 h	0.63
Rat [22], 6 h	0.00762
Rat [23], 0.5017 h	5.04
Rat [23], 8 h	0.0561
Rat [25], 0.25 h	0.386
Rat [25], 6 h	0.0061
Rat [26], 4 h	0.204
Rat [26], 5 min	20.3
Rat [27], 0.2533 h	0.362
Rat [27], 6 h	0.00512
Rat [28], 1 h	0.797
Rat [28], 24 h	0.00536
Rat [29], 1 h	0.0468
Rat [29], 24 h	0.00083
Rat [30], 4 h	0.216
Rat [30], 5 min	22.1
Rat [31], 0.5033 h	0.216
Rat [31], 8 h	0.00356
Rat [32], 1 h	0.066
Rat [32], 24 h	0.00085

Settings	concentration in plasma [µg/g]
Rat [24]	0.0313

C=Cc1ccccc1 [styrene]
rat [33]
Settings	concentration in blood [ng/mL]
0.5 h	1870
1 h	2430
2 h	5540
3 h	6070
4 h	7900
